Tested on: CHO DG44 cells
Experiment: Multiple VPA additions, IgG batch titer by ELISA (Example 3)
Assay type: cell-based, Chinese Hamster
Conditions: day 10 after transfection
Procedure: 10 million suspension-adapted HEK293E cells were resuspended in 0.5 ml of Ex-Cell 293 HEK 293 serum-free medium with 4 mmol/l L-glutamine (Cat. No. 14571C-[…]; Lot No. 6A0093; SAFC Biosciences, Lenexa, Kans., USA, “Ex-Cell” medium; note: “Ex-Cell” medium-as used herein-refers to a medium comprising 4 mmol/l L-glutamine) in a 50-ml filter tube each (TPP AG, Trasadingen, Switzerland; Cat. No. 87050, Lot 20050174). In a separate set, 10 million suspension-adapted CHO DG44 cells were resuspended in 0.5 ml of ProCHO5 serum-free medium with 4 mmol/[…] hypoxanthine and 0.194 g/l thymidine (BioWhittaker (Lonza), Belgium; Cat. No. BE12-[…]; Lot No. 7 MB0040; “ProCHO5” medium; note: “ProCHO5” medium-as used herein-refers to a medium comprising 4 mmol/[…] hypoxanthine and 0.194 g/l thymidine) in a 50-ml filter tube each (TPP AG, Trasadingen, Switzerland; Cat. No. 87050, Lot 20050174). Then 12.5 μg plasmid DNA at a concentration of 1 μg/μl was added in each tube with the following composition 50% (6.25 μg) p-LC (SEQ ID NO: 1) 50% (6.25 μg) p-HC (SEQ ID NO: 3). Plasmid p-LC comprises the genetic information for the production of the light chain of an IgG antibody, plasmid p-HC comprises the genetic information for the production of the heavy chain of an IgG antibody. The particular vector constructs used in the present invention can also be obtained from the inventors. The inventors can be contacted via e-mail at […]. […] In short, Goat anti-human kappa light chain IgG (Biosource) was used for coating the ELISA-plates, and with AP-conjugated goat anti-human gamma chain IgG (Biosource) the synthesized IgG1 was detected. […] Absorption was measured at 405 nm against 490 nm using a microplate reader (SPECTRAmaxTM340; Molecular Devices, Palo Alto, Calif., USA).

What does the source list for CCCC(CCC)C(=O)O [VPA, valproic acid]?
Batch titer (0.5 mmol/l VPA at day 0): 35.8 mg/L; batch titers, direct addition versus slowly increasing concentration: statistically not different; Batch titer (escalating dosage, 0.125 to 0.5 mmol/l in 0.125 mmol/l increments every other day): 37.9 mg/L

— patent US20090023186A1, “USE OF VALPROIC ACID FOR ENHANCING PRODUCTION OF RECOMBINANT PROTEINS IN MAMMALIAN CELLS” (EXCELLGENE SA, priority 2007, published 2009)
